pIC50: −log10 of the molar value. Entries after “also recorded” stand apart in the source; their conditions may differ. Like-named read-outs stand apart in the source and are kept apart here.
What was measured:
PC-3 cells [1] = test: cellular growth (proliferation) assay, resazurin; format: cell-based; conditions: for antiproliferative effect after UV irradiation: 365 nm, 1.1 kW/m^2, 48 h; for TGI (total growth inhibition) mark: without UV irradiation
Protocol: Growth assays on VEGFR-2 dependent PC-3 cells were performed.
PC-3 cells were purchased from CLS Cell Lines Service GmbH (Eppelheim, Germany). The cells were grown in DMEM:Hams F12 (1:1) medium with 5% FCS. PC-3 cells were incubated in a 5% CO2 humidified atmosphere at 37 °C.
The cells were grown in cell flasks until approximately 90% confluence and then seeded to give 13000 cells in 100 μL per well into 96-well CulturePlates™ (Perkin Elmer). In addition to the test plates, one plate was prepared for reference measurement at day zero. All plates were incubated for 24 h at 37 °C in a humidified atmosphere with 5% CO2. Compounds 1, 3, 4, and 5 were dissolved in 100% DMSO (v/v) and added to the test plates. The final DMSO concentration in the assay was 0.5% (v/v). Viability of the cells in the day zero control plates were determined on the same day without adding any compounds. For viability measurement the resazurin assay was used. The shift in the fluorescence signal was measured at the LS55 Fluorescence spectrometer (Perkin Elmer). For the photoactivation experiments the test plates were irradiated at 365 nm for 5 min (LED source: 8× Nichia NCSU033B, Sahlmann Photochemical Solutions, 50%, 1.1 kW/m^2). Test plates were incubated for further 48 h and cell viability was defined as described above. Measured raw data was converted into percent of cell growth by using the high control (0.5% DMSO (v/v) without compound) and the day zero control. For dose-response studies, 11 different concentrations of compounds were tested in duplicates. IC50 values were calculated using the 4-parameter logarithmic fit option of GraphPad Prism 5.

VEGFR-2 = target: T1, VEGFR-2 (Homo sapiens, UniProt P35968); test: radiometric 33PanQinase VEGFR-2 kinase assay (ProQinase); format: biochemical; conditions: 10 semi-log concentrations, single samples, 1% DMSO
T1 construct: determined using VEGFR-2 protein kinase by a radiometric ^33PanQinase® assay; purchased ProQinase (Freiburg, Germany)
T1 sequence (P35968 20-1356): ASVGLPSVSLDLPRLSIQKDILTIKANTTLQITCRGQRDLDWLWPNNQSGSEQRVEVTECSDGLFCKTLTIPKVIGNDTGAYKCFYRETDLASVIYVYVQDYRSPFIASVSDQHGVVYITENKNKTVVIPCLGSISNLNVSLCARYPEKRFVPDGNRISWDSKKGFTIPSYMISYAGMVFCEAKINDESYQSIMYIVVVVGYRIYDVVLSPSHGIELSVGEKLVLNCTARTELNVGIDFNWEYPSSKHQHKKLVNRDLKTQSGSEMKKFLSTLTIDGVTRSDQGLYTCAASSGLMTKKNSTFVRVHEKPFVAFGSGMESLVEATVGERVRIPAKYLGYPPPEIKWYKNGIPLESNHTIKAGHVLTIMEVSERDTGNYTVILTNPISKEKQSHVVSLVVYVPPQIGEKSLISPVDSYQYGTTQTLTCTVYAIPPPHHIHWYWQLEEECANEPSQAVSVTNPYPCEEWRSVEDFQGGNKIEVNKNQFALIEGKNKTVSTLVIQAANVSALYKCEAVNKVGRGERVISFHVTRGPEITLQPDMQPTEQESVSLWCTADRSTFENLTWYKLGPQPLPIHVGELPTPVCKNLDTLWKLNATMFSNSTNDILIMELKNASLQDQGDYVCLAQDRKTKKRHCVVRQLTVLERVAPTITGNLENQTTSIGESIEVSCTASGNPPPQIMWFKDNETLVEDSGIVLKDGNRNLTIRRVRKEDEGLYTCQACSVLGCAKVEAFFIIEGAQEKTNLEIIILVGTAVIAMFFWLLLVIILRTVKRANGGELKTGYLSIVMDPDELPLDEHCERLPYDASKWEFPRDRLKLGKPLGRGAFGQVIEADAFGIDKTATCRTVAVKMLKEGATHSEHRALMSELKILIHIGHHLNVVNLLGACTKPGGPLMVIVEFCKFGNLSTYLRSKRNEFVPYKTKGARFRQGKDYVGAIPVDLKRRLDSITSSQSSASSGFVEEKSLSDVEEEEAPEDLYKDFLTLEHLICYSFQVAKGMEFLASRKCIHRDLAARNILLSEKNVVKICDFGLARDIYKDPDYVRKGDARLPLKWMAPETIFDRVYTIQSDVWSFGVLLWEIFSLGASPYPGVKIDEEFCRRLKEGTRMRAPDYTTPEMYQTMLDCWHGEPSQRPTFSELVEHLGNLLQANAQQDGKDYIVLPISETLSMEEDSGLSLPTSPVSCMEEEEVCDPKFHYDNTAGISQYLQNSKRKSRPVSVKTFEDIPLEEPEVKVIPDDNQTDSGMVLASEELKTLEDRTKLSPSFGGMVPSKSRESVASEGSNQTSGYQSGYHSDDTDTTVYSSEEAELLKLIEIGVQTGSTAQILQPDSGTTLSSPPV
Protocol: As predicted by molecular modeling, insertion of the protecting group DMNB should diminish the inhibitory activity both of the maleimide 1 and the carbazole 3. […] The IC50 values towards VEGFR-2 were determined (Table 1).
The VEGFR-2 IC50 profile for 1, 3, 4 and 5 was determined using VEGFR-2 protein kinase by a radiometric ^33PanQinase® assay. […] Prior to testing, the compounds were dissolved to prepare 1 × 10^−2 M stock solutions in 100% DMSO. The final DMSO concentration in the reaction cocktails was 1% in all cases. Analyses were performed by ProQinase (Freiburg, Germany).

[2] = photoactivation (uncaging) at 365 nm in DMSO (HPLC, LC-MS); format: physicochemical; conditions: 1 mM in DMSO, 5.4 W, up to 10 min
Source text: A further prerequisite for an application of caged prodrugs is a rapid and quantitative release of active parent compounds by irradiation. To examine this, we investigated the uncaging of 4 and 5 induced by irradiation at 365 nm with 5.4 W (Figure 5). […] Initially released maleimide 1 is converted to the intermediate 2 by proceeding irradiation, which is in line to the previously described instability of 1, (compare Figure 4a). […] Due to UV stability of 3 no other by-products could be detected.
After 0.25, 0.5, 0.75, 1, 2, 3, 5 and 10 min of irradiation samples were taken. Aliquots were diluted 1:5 with methanol and subsequently analyzed by HPLC. Additional to retention time LC-MS was used to proof identity.

PC-3 cells [3] = test: cellular uptake by fluorescence microscopy (cell staining); format: cell-based; conditions: live PC-3 cells, 10 µM, 30 min, autofluorescence
Protocol: Next, we investigated the cellular bioavailability of the caged prodrugs. For this purpose, we used the autofluorescence of the carbazole 3 and its caged derivative 5. The emission spectra of both compounds are shown in the Supplementary Figure S6. The fluorescence microscopy was used to explore the uptake of the compounds into the cells. Live PC-3 cells were stained with 10 µM solutions of 3 or 5, and then fixed with formalin. Subsequently, the cell nuclei were counterstained with 1 µg/mL DAPI.
PC-3 cells were stained with the carbazole 3 and its caged derivative 5. For this purpose, the cells were seeded to give 15,000 cells in 50 µL per well into 96-well half area microplate (Ref.: 675986, Greiner bio-one, Kremsmünster, Austria). The plate was incubated for 48 h at 37 °C in a humidified atmosphere with 5% CO2. Compounds 3 and 5 were dissolved in DMEM:Hams F12 (1:1) medium with 5% FCS and added to the cells to give the endconcentration of 10 µM, respectively. The cells were incubated with the compounds for 30 min at 37 °C. After that, the cells were washed twice with PBS and fixed with 3.3% formalin for 15 min. […] After 30 min incubation at 37 °C, the cells were washed with PBS and the fluorescence images were taken at the ImageXpress® Micro XL (Molecular Devices, Sunnyvale CA, USA). […]

[4] = irradiated at 365 nm, 5 min, 1.1 kW/m^2, cell growth after 48 h, read-out: GI50 after Irradiation
[5] = Homo sapiens, PC-3, light or radiation study, irradiated at 365 nm, 5 min, 1.1 kW/m^2, cell growth after 48 h, read-out: GI50 after Irradiation

For `C[C@H](NC(=O)OC(C)(C)C)C(=O)O` [Boc-Ala, reference compound], the “antiproliferative effect after UV irradiation” value (PC-3 cells [1]; 5 min) was “does not have any effect on cellular growth” and the “antiproliferative effect without UV irradiation” value (PC-3 cells [1]; no UV irradiation, 48 h) was “do not show any; also recorded: did not show any antiproliferative effects”.

In the case of `COc1cc(COC(=O)[C@H](C)NC(=O)OC(C)(C)C)c([N+](=O)[O-])cc1OC` [DMNB-Boc-Ala, reference compound], the “antiproliferative effect after UV irradiation” value (PC-3 cells [1]; 5 min) was “distinct antiproliferative activity”, the GI50 (PC-3 cells [1]; [4]) was 50.3 µM and the “antiproliferative effect without UV irradiation” value (PC-3 cells [1]; no UV irradiation, 48 h) was “do not show any; also recorded: did not show any antiproliferative effects”.

With `COc1cc(CN2C(=O)C(c3cc(OC)c(OC)c(OC)c3)=C(c3c[nH]c4ccccc34)C2=O)c([N+](=O)[O-])cc1OC` [Compound 4, 1-(4,5-Dimethoxy-2-nitrobenzyl)-3-(1H-indol-3-yl)-4-(3,4,5-trimethoxyphenyl)-1H-pyrrole-2,5-dione] the melting point was 205 °C, the GI50 (PC-3 cells [1]; [5]) was 0.1 µM and the “concentration at which the cleaved PPG shows toxicity relative to efficacious concentration of the irradiated compound” value (PC-3 cells [1]; after irradiation, PPG from DMNB-Boc-Ala) was “approximately 500 fold”. The “antiproliferative effect without UV irradiation” value (PC-3 cells [1]; no UV irradiation, 48 h) was “do not show any; also recorded: very marginal antiproliferative activity”, the “GI50 without Irradiation” value (PC-3 cells [1]; no UV irradiation, cell growth after 48 h) was “not reached” and the “TGI (total growth inhibition) mark” value (PC-3 cells [1]; 48 h) was “not reached even at high concentrations”. The pIC50 (VEGFR-2) was 5.34 and the “photoinduced release of parent compound (uncaging)” value [2] was “cleavage of the DMNB PPG”.

`COc1cc(CN2C(=O)c3c(c4c5ccccc5[nH]c4c4c(OC)c(OC)c(OC)cc34)C2=O)c([N+](=O)[O-])cc1OC` [Compound 5, 2-(4,5-Dimethoxy-2-nitrobenzyl)-5,6,7-trimethoxybenzo[a]pyrrolo[3,4-c]carbazole-1,3(2H,8H)-dione] showed a melting point of 283 °C, a GI50 (PC-3 cells [1]; Homo sapiens, PC-3, light or radiation study, 48 h, no UV irradiation, cell growth after 48 h, read-out: GI50 without Irradiation) of 34.6 µM and a GI50 (PC-3 cells [1]; [5]) of 0.22 µM. For the same molecule, the GI50 (PC-3 cells [1]; [4]) was 0.2 µM, the “TGI (total growth inhibition) mark” value (PC-3 cells [1]; 48 h) was “not reached even at high concentrations” and the pIC50 (VEGFR-2) was 4.35. For the same molecule, the cellular uptake (PC-3 cells [3]) was “taken up into the cells, but not within the cell nuclei” and the “photoinduced release of parent compound (uncaging)” value [2] was “rapidly released”.

Reference: publication PMC6274539, “Photoactivatable Caged Prodrugs of VEGFR-2 Kinase Inhibitors” (Molecules, 2016)
